Patent US5500430A, “Amidic derivatives of glutamic, aspartic and 2-amino adipic acids, a process for preparing same, and anti-gastrin composition containing the derivatives” (Rotta Research Laboratorium S.p.A., priority 1990, dated 1996)

Assays:
[1] = system: mouse colic adenocarcinoma; assay: Colic tumorous growth induced by pentagastrin in mice; type: in vivo; settings: 21 days
Source text: Inhibitory effect on the rate of growth of tumorous colic cells induced by pentagastrin
Gastrin has a trophic effect on the digestive epithelium.
Upon the basis of this premise, it was wished to investigate whether the gastrin-specific antagonists of the invention could antagonise the growth of experimentally-induced gastrointestinal tumours.
Male mice weighing 20-25 g were inoculated subcutaneously in the interscapular region with a suspension of 8×10^4 tumour cells of a mouse colic adenocarcinoma.
After 21 days, the animals were killed and the fundic mucosa and the tumours were removed, weighed and extracted to determine the DNA.

[2] = system: guinea-pig gall bladder contracted with CCK-8; assay: Anticholecystokinin (anti-CCK) activity on guinea-pig gall bladders stimulated by CCK-8 in vitro; settings: CCK-8 concentration 10 ng/ml, Krebs, 32° C.
Experimental: Anticholecystokinin (anti-cc, K) activity
In order to confirm the hypothesis that the molecular conformations of the compounds of the invention are suitable to provide them with antagonistic activity towards CCK as well as towards gastrin, the anticontracturant activities of some of the compounds of the invention were tested on guinea-pig gall bladders stimulated by CCK-8 in vitro.
A longitudinal strip of guinea-pig gall bladder was placed in a bath for isolated organs in the presence of Krebs at a temperature of 32° C. and oxygenated continuously with an oxygen-CO2 mixture (95-5 V/V).
The isometric contractions were detected by means of a force transducer and recorded.
The gall bladder was contracted with the use of a concentration of 10 ng/ml of CCK-8; the antagonistic activities of the compounds towards the contracturant effect of the CCK was determined with the use of different concentrations, thus determining the IC50 values, that is, the concentration of the compound in mcg/ml which can antagonise the contracturant effect of CCK by 50%.

[3] = system: gastric acid secretion induced by pentagastrin; assay: Antisecretive activity in conscious dogs carrying gastric fistulae; type: in vivo, dogs (beagles); settings: for ED50: Canis lupus familiaris, iv, read-out: ID50 (the source's name)
Experimental: Antisecretive activity in conscious dogs
Male beagles weighing about 10 Kg were used and carried gastric fistulae at the level of the greater curvature, connected near the antral region, steel cannulae 5 cm long and 2 cm wide being inserted for collecting the gastric juices externally. After a period of about one month to recover from the operation, and after suitable conditioning, the animals were treated with pentagastrin at a dose of 3 mcg/Kg/h. The Stimulant, dissolved in a physiological solution, was perfused into the femoral vein for 180 minutes at a rate of 1.9 ml/h. After perfusion for 60 minutes (the basal stimulation) the product under test, dissolved in a physiological solution (1 ml/Kg), was administered in a bolus into the contra-lateral vein and, at the same time, the perfusion of the stimulant continued for a further 120 minutes. The acid secretion was recorded continuously as a function of time.
The activity of the product was evaluated as the percentage reduction in the secreted acidity after the administration of the product compared with the base acidity measured during the first 60 minutes of collection during which only the pentagastrin was present, for each of the periods 0-60 and 60-120 minutes after the product had been administered in a bolus.
Different doses of the compounds (C-1 and C-5) tested were administered so that an ID50, that is the dose (in mg/Kg I.V.) capable of inhibiting the effect of the pentagastrin by 50% could be calculated.
The results obtained are given in the following table (Tab. 2) in which the % variations from the base (the mean ± standard deviations calculated on the values obtained from 4 animals) are given for the various doses administered under the stimulus of 3 mcg/Kg/h of pentagastrin, as well as the activities of the compounds, calculated as their ID50s, and the correlation coefficients of the regression lines calculated on the basis of the experimental data.

[4] = system: gastric acid secretion induced by pentagastrin; assay: Antisecretive activity in anaesthetised rats (pentagastrin-stimulated gastric acid secretion); type: in vivo
Experimental: Antisecretive activity in anaesthetised rats
Antisecretive activity in rats was determined with the use of male animals each weighing about 200 g, anaesthetised with urethane. Gastric secretion was stimulated with pentagastrin. The method of K. S. Lai (Gut 5, (1964), 327-341) was used, slightly modified.
After tracheotomy, cannulae were inserted in the oesophagus and the duodenum. A tepid solution. (37° C.) of 0.25 mM NaOH was perfused and passed through the stomach by means of a peristaltic pump at a constant flow rate of 1 ml/minute. After stabilisation for 20 minutes, the stimulating agent, dissolved in a physiological solution, was perfused for 120 minutes at a dose of 30 mcg/Kg/h in a volume of 0.95 ml/hour. After perfusion for 60 minutes (the basal stimulation), the product under test was administered as an intravenous bolus (I.V.) and the perfusion of the stimulant continued for a further 60 minutes. Acid secretion was recorded continuously as a function of time.
The activity of the product was evaluated as the percentage reduction in the secreted acidity after the administration of the product compared with the base acidity measured during the first 60 minutes of collection during which only the pentagastrin was present.
Different doses of the antagonist compounds tested were administered so that an ID50, that is, the dose (in mg/Kg I.V.) capable of inhibiting the effect of pentagastrin by 50%, could be calculated.
The results thus obtained are illustrated in the following table (Table 1) in which the activities of the compounds are expressed as the ID50s under the stimulus of 30 mcg/Kg/h of pentagastrin.

[5] = pentagastrin + C-5 3 mg/Kg i.p. twice a day
[6] = pentagastrin + C-5 10 mg/Kg i.p. twice a day

O=C(O)CC[C@@H](NC(=O)c1cc(Cl)cc(Cl)c1)C(=O)N1CCC2(CCCC2)CC1 [Compound C5]
Effect on colic tumour weight and DNA content (in words) ([1]; mice): can inhibit both the aforementioned trophic effects of pentagastrin in a significant and dose-dependent manner
Tumorous DNA, Mean [1, 5]: 3.24 ± 0.42 mg
Weight of the colic tumor, Mean ± SD [1, 5]: 601.5 ± 91.7 mg
Tumorous DNA, Mean [1, 6]: 2.94 ± 0.31 mg
Weight of the colic tumor, Mean ± SD [1, 6]: 554 ± 61.7 mg
Anti-CCK activity IC50 [2]: 34.8 µg/mL
Variation % (Mean ± SD) from base (0-60 min) ([3]; 5 mg/Kg I.V., period 60-120 min): -36.0 ± 16.3%
Variation % (Mean ± SD) from base (0-60 min) ([3]; 5 mg/Kg I.V., period 120-180 min): -20.5 ± 13.1%
Variation % (Mean ± SD) from base (0-60 min) ([3]; 10 mg/Kg I.V., period 60-120 min): -59.5 ± 5.0%
Variation % (Mean ± SD) from base (0-60 min) ([3]; 10 mg/Kg I.V., period 120-180 min): -31.9 ± 1.3%
Variation % (Mean ± SD) from base (0-60 min) ([3]; 30 mg/Kg I.V., period 60-120 min): -67.8 ± 4.8%
Variation % (Mean ± SD) from base (0-60 min) ([3]; 30 mg/Kg I.V., period 120-180 min): -48.1 ± 1.7%
ED50 ([3]; 1 h, conscious dogs, I.V. bolus, period 60-120 min (first hour after administration)): 8.9 mg/kg
ED50 ([3]; 2 h, conscious dogs, I.V. bolus, period 120-180 min (second hour after administration)): 32.5 mg/kg
ID50 ([3]; conscious dogs, I.V. bolus, period 60-120 min (first hour after administration), 60 min): ~10 mg/kg
Inhibition of gastric acid secretion induced by pentagastrin in dogs (in words) ([3]; conscious dogs, first hour after bolus): potent inhibitors of gastric acid secretion induced by pentagastrin in dogs
ED50 ([4]; Rattus norvegicus, iv, anaesthetised male rats, pentagastrin 30 mcg/Kg/h, I.V. bolus, IN with bound, read-out: Antagonistic activity (ID50) towards gastric acid secretion induced by pentagastrin): 15 mg/kg
Antigastrin activity (in words) ([4]; anaesthetised rats, pentagastrin 30 mcg/Kg/h): particularly favourable
Activity as peripheral pentagastrin inhibitor relative to compound C-30 ([4]; rats, vs C-30): slightly more active
